Reference: patent US9963467B2, “Boronic acid derivatives and therapeutic uses thereof” (Rempex Pharmaceuticals, Inc., priority 2014, dated 2018)
pKi: −log10 of the molar value. Like-named read-outs stand apart in the source and are kept apart here.

How the values were obtained:
SHV-12 = SHV-12 (Klebsiella pneumoniae, UniProt P0AD64, E235K/G234S/L31Q); test: Ki, nitrocefin cleavage by purified enzyme, SHV-12; format: biochemical; conditions: nitrocefin reporter substrate; read-out: Ki (SHV-12, NCF)
SHV-12, sequence (P0AD64 22-286 L31Q/G234S/E235K): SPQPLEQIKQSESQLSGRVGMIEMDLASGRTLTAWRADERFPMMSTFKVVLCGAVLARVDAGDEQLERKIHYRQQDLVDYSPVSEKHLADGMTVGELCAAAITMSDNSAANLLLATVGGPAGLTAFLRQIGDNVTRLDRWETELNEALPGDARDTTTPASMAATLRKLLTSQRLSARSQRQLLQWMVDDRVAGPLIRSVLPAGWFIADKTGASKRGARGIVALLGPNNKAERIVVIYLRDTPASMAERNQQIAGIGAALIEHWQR
In short: (§1)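 Readout: nitrocefin hydrolysis, A490 recorded every 10 sec over 10 min. Enzyme and inhibitor (varied concentrations) preincubated 10 min, RT, in reaction buffer before substrate addition.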

ec302 (TEM-10) [1] = test: Tigemonam potentiation (MPC@4), ec302; format: cell-based
KP1009 (CTX-M-15) = test: Tigemonam potentiation (MPC@4), KP1009; format: cell-based; conditions: BLI with tigemonam at 4 μg/mL
[2] = Monomer content of pH adjusted aqueous solutions (LC-UV); format: physicochemical; conditions: pH adjusted to 7.6 to 8, LC-UV; for % Monomer in 1 mg/mL salt solution: 1 mg/mL aqueous salt solution; for % Monomer in 10 mg/mL salt solution: 10 mg/mL aqueous salt solution; for % Monomer in 100 mg/mL salt solution: 100 mg/mL aqueous salt solution
In short: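 Aqueous solutions at 1.00, 10.0 or 100 mg/mL (active fraction) brought to pH 7.6–8 with acid or base, compound fully dissolved. Injected within half an hour of preparation onto C18 reversed-phase LC (0.1% TFA water / 0.085% TFA methanol gradient); UV detection at 220, 254 and 300 nm.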

CTX-M-14 = CTX-M-14 (Escherichia coli, UniProt Q9L5C7); test: Ki, nitrocefin cleavage by purified enzyme, CTX-M-14; format: biochemical; conditions: nitrocefin reporter substrate; read-out: Ki (CTX-M-14, NCF)
CTX-M-14, sequence (Q9L5C7 29-291): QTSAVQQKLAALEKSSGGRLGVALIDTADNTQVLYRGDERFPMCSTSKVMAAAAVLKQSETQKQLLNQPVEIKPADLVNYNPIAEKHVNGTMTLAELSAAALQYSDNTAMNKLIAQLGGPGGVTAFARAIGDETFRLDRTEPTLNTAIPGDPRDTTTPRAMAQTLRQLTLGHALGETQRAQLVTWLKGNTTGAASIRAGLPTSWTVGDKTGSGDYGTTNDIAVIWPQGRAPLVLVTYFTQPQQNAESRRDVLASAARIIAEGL
In short: as §1

KP1005 (CTX-M-14) [3] = test: Tigemonam potentiation (MPC@4), KP1005; format: cell-based; conditions: BLI with tigemonam at 4 μg/mL
EC1010 (CMY-6) [4] = test: organism not typed; format: cell-based
[5] = Intravenous pharmacokinetics; format: in vivo; conditions: rat, plasma; rats, 20 mg/kg, intravenous infusion over 0.5 hours; read-out: Free Cl (converted)
Procedure: Rats (n=3 per compound) were administered by a single infusion. Intravenous doses were infused over 0.5 hours via an indwelling femoral vein cannula. […] (˜0.3 mL) samples were collected from each rat at designated time points up to 24 hours. Blood samples were centrifuged within 5 min of collection at 12000 g for 5 min to obtain plasma. The plasma samples were stored at −80° C. until analyzed. Data were analyzed using WinNonlin. The doses of all compounds tested were 20 mg/kg.

KP1086 (OXA-48) = test: Biapenem potentiation (MPC@1), KP1086; conditions: BLI with biapenem at 1 μg/mL
KP1010 (SHV-12) = test: Tigemonam potentiation (MPC@4), KP1010; format: cell-based
KP1004 (KPC-2) [6] = test: Biapenem potentiation (MPC@1), KP1004; conditions: BLI with biapenem at 1 μg/mL
ec308 (SHV-5) = test: Tigemonam potentiation (MPC@4), ec308; format: cell-based
ECL1002 [7] = test: Aztreonam potentiation (MPC@4), ECL1002; format: cell-based; conditions: BLI with aztreonam at 4 μg/mL
Pa AmpC = Pa AmpC (Pseudomonas aeruginosa, UniProt P24735); test: Ki, nitrocefin cleavage by purified enzyme, Pa AmpC; format: biochemical; conditions: nitrocefin reporter substrate; read-out: Ki (Pa AmpC, NCF)
Pa AmpC, sequence (P24735 27-397): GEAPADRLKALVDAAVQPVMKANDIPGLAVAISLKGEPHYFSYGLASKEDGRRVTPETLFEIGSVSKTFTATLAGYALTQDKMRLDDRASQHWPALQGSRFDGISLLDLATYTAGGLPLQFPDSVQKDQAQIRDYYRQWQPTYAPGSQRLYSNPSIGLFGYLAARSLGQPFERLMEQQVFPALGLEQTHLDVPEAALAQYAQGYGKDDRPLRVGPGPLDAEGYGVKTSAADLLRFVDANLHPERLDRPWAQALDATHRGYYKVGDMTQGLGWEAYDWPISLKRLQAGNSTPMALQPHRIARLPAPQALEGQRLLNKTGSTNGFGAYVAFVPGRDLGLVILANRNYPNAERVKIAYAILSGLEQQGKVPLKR
In short: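 Spectrophotometric Ki: enzyme + inhibitor (varied conc.), 10 min RT preincubation; nitrocefin added; A490 read every 10 sec for 10 min.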

P99 = P99 (Enterobacter cloacae, UniProt P05364); test: Ki, nitrocefin cleavage by purified enzyme, P99; format: biochemical; conditions: nitrocefin reporter substrate; read-out: Ki (P99, NCF)
P99, sequence (P05364 21-381): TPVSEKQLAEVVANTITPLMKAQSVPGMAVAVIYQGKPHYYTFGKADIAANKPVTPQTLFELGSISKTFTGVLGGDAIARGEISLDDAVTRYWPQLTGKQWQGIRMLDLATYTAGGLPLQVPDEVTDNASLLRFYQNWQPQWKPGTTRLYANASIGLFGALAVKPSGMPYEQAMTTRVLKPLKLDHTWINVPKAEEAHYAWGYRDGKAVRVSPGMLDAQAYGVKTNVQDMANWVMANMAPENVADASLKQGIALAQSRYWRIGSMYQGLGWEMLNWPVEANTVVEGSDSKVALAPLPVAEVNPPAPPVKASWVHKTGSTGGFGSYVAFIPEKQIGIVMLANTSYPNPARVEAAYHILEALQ
In short: as §1

OXA-48 = OXA-48 (Klebsiella pneumoniae, UniProt Q6XEC0); test: Ki, nitrocefin cleavage by purified enzyme, OXA-48; format: biochemical; conditions: nitrocefin reporter substrate; read-out: Ki (OXA-48, NCF)
OXA-48, sequence (Q6XEC0 23-265, looked up, species assumed): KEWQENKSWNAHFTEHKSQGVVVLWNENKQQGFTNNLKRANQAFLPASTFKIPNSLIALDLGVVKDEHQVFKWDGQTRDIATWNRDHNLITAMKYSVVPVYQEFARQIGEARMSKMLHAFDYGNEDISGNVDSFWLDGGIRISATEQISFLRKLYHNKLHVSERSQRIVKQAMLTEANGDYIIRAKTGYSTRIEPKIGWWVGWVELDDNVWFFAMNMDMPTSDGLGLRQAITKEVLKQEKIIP
In short: as §1

KPC-2 = KPC-2 (Klebsiella pneumoniae, UniProt Q9F663); test: Ki, nitrocefin cleavage by purified enzyme, KPC-2; format: biochemical; conditions: nitrocefin reporter substrate; read-out: Ki (KPC-2, NCF)
KPC-2, sequence (Q9F663 25-293, looked up, species assumed): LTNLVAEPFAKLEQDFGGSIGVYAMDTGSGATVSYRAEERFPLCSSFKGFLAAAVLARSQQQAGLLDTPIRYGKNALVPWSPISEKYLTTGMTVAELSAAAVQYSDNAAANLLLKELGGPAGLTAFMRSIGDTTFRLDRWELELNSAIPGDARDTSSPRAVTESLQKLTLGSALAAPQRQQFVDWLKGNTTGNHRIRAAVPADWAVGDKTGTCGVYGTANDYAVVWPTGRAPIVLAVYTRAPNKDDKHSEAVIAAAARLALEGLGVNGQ
In short: as §1

ECL1002 [8] = test: Tigemonam potentiation (MPC@4), ECL1002; format: cell-based; conditions: BLI with tigemonam at 4 μg/mL
ec302 (TEM-10) [9] = test: Aztreonam potentiation (MPC@4), ec302; format: cell-based; conditions: BLI with aztreonam at 4 μg/mL
EC1010 (CMY-6) [10] = test: Tigemonam potentiation (MPC@4), EC1010; format: cell-based; conditions: BLI with tigemonam at 4 μg/mL
KP1004 (KPC-2) [11] = test: Aztreonam potentiation (MPC@4), KP1004; format: cell-based; conditions: BLI with aztreonam at 4 μg/mL
KP1005 (CTX-M-14) [12] = test: Aztreonam potentiation (MPC@4), KP1005; format: cell-based; conditions: BLI with aztreonam at 4 μg/mL

SMILES	pKi (SHV-12)	TIG MPC4 TEM-10 ec302 (ec302 (TEM-10) [1])	TIG MPC4 CTX-M-15 KP1009 (KP1009 (CTX-M-15))	% Monomer in 1 mg/mL salt solution [2] [%]	% Monomer in 10 mg/mL salt solution [2] [%]	pKi (CTX-M-14)	TIG MPC4 CTX-M-14 KP1005 (KP1005 (CTX-M-14) [3])	clearance [5] [mL/min/kg]	BPM MPC1 OXA-48 KP1086 (KP1086 (OXA-48))	TIG MPC4 SHV-12 KP1010 (KP1010 (SHV-12))	BPM MPC1 KP1004 KPC-2 (KP1004 (KPC-2) [6])	TIG MPC4 SHV-5 ec308 (ec308 (SHV-5))	AZT MPC4 ECL1002 (ECL1002 [7])	pKi (Pa AmpC)	pKi (P99)	pKi (OXA-48)	pKi (KPC-2)	TIG MPC4 ECL1002 (ECL1002 [8])	AZT MPC4 TEM-10 ec302 (ec302 (TEM-10) [9])	TIG MPC4 CMY-6 EC1010 (EC1010 (CMY-6) [10])	other results
O=C(Cc1cccs1)N[C@H]1Cc2ccc(F)c(C(=O)O)c2OB1O [Compound 30, (R)-7-fluoro-2-hydroxy-3-(2-(thiophen-2-yl)acetamido)-3,4-dihydro-2H-benzo[e][1,2]oxaborinine-8-carboxylic acid]	> 9.00	Y (key: X: MIC of less than 1 ng/mL; Y: MIC of 1 μg/mL to 10 μg/mL; Z: MIC of greater than 10 μg/mL)	X (MIC of less than 1 μg/mL)	94.6	93.5	> 9.00	Y (MIC of 1 μg/mL to 10 μg/mL)	23	Y (MIC of 1 μg/mL to 10 μg/mL)	X (key: X: MIC of less than 1 μg/mL; Y: MIC of 1 μg/mL to 10 μg/mL; Z: MIC of greater than 10 μg/mL)	X (MIC of less than 1 μg/mL)	X (key: X: MIC of less than 1 μg/mL; Y: MIC of 1 μg/mL to 10 μg/mL; Z: MIC of greater than 10 μg/mL)	Y (MIC of 1 μg/mL to 10 μg/mL)	8.00 to 9.00	8.00 to 9.00	> 9.00	8.00 to 9.00	X (MIC of less than 1 μg/mL)	Y (MIC of 1 μg/mL to 10 μg/mL)	X (MIC of less than 1 μg/mL)	% Monomer in 100 mg/mL salt solution [2]: 87.6%; AZT MPC4 CMY-6 EC1010 (EC1010 (CMY-6) [4]): Y (key: X: MIC of less than 1 ng/mL; Y: MIC of 1 μg/mL to 10 μg/mL; Z: MIC of greater than 10 μg/mL)
O=C(CSC(F)F)N[C@H]1Cc2ccc(F)c(C(=O)O)c2OB1O [Compound 3, (R)-3-(2-(difluoromethylthio)acetamido)-7-fluoro-2-hydroxy-3,4-dihydro-2H-benzo[e][1,2]oxaborinine-8-carboxylic acid]	> 9.00	Y (key: X: MIC of less than 1 ng/mL; Y: MIC of 1 μg/mL to 10 μg/mL; Z: MIC of greater than 10 μg/mL)	X (MIC of less than 1 μg/mL)	99.8	–	> 9.00	X (MIC of less than 1 μg/mL)	13	Z (MIC of greater than 10 μg/mL)	X (key: X: MIC of less than 1 μg/mL; Y: MIC of 1 μg/mL to 10 μg/mL; Z: MIC of greater than 10 μg/mL)	X (MIC of less than 1 μg/mL)	X (key: X: MIC of less than 1 μg/mL; Y: MIC of 1 μg/mL to 10 μg/mL; Z: MIC of greater than 10 μg/mL)	Y (MIC of 1 μg/mL to 10 μg/mL)	< 8.00	< 8.00	8.00 to 9.00	< 8.00	Y (MIC of 1 μg/mL to 10 μg/mL)	X (MIC of less than 1 ng/mL)	X (MIC of less than 1 μg/mL)	AZT MPC4 KPC-2 KP1004 (KP1004 (KPC-2) [11]): Y (MIC of 1 μg/mL to 10 μg/mL); AZT MPC4 CMY-6 EC1010 (EC1010 (CMY-6) [4]): Y (key: X: MIC of less than 1 ng/mL; Y: MIC of 1 μg/mL to 10 μg/mL; Z: MIC of greater than 10 μg/mL); AZT MPC4 CTX-M-14 KP1005 (KP1005 (CTX-M-14) [12]): Y (MIC of 1 μg/mL to 10 μg/mL)
COc1ccc2c(c1C(=O)O)OB(O)[C@@H](NC(=O)Cc1cccs1)C2 [Compound 29, (R)-2-hydroxy-7-methoxy-3-(2-(thiophen-2-yl)acetamido)-3,4-dihydro-2H-benzo[e][1,2]oxaborinine-8-carboxylic acid]	> 9.00	Y (key: X: MIC of less than 1 ng/mL; Y: MIC of 1 μg/mL to 10 μg/mL; Z: MIC of greater than 10 μg/mL)	X (MIC of less than 1 μg/mL)	99.4	98.6	> 9.00	X (MIC of less than 1 μg/mL)	11.2	Y (MIC of 1 μg/mL to 10 μg/mL)	X (key: X: MIC of less than 1 μg/mL; Y: MIC of 1 μg/mL to 10 μg/mL; Z: MIC of greater than 10 μg/mL)	X (MIC of less than 1 μg/mL)	X (key: X: MIC of less than 1 μg/mL; Y: MIC of 1 μg/mL to 10 μg/mL; Z: MIC of greater than 10 μg/mL)	–	8.00 to 9.00	8.00 to 9.00	> 9.00	8.00 to 9.00	X (MIC of less than 1 μg/mL)	X (MIC of less than 1 ng/mL)	X (MIC of less than 1 μg/mL)	AZT MPC4 KPC-2 KP1004 (KP1004 (KPC-2) [11]): Y (MIC of 1 μg/mL to 10 μg/mL); % Monomer in 100 mg/mL salt solution [2]: 67.0%
O=C(CSC1CNC1)N[C@H]1Cc2ccc(F)c(C(=O)O)c2OB1O [Compound 2, (R)-3-(2-(azetidin-3-ylthio)acetamido)-7-fluoro-2-hydroxy-3,4-dihydro-2H-benzo[e][1,2]oxaborinine-8-carboxylic acid]	> 9.00	Y (key: X: MIC of less than 1 ng/mL; Y: MIC of 1 μg/mL to 10 μg/mL; Z: MIC of greater than 10 μg/mL)	X (MIC of less than 1 μg/mL)	–	–	> 9.00	X (MIC of less than 1 μg/mL)	10.2	Y (MIC of 1 μg/mL to 10 μg/mL)	X (key: X: MIC of less than 1 μg/mL; Y: MIC of 1 μg/mL to 10 μg/mL; Z: MIC of greater than 10 μg/mL)	X (MIC of less than 1 μg/mL)	X (key: X: MIC of less than 1 μg/mL; Y: MIC of 1 μg/mL to 10 μg/mL; Z: MIC of greater than 10 μg/mL)	Y (MIC of 1 μg/mL to 10 μg/mL)	< 8.00	< 8.00	< 8.00	< 8.00	X (MIC of less than 1 μg/mL)	Y (MIC of 1 μg/mL to 10 μg/mL)	X (MIC of less than 1 μg/mL)	AZT MPC4 CMY-6 EC1010 (EC1010 (CMY-6) [4]): Y (key: X: MIC of less than 1 ng/mL; Y: MIC of 1 μg/mL to 10 μg/mL; Z: MIC of greater than 10 μg/mL)
CSCC(=O)N[C@H]1Cc2ccc(F)c(C(=O)O)c2OB1O [Compound 1, (R)-7-fluoro-2-hydroxy-3-(2-(methylthio)acetamido)-3,4-dihydro-2H-benzo[e][1,2]oxaborinine-8-carboxylic acid]	> 9.00	–	X (MIC of less than 1 μg/mL)	98.0	97.5	> 9.00	X (MIC of less than 1 μg/mL)	14.2	Y (MIC of 1 μg/mL to 10 μg/mL)	–	X (MIC of less than 1 μg/mL)	–	Y (MIC of 1 μg/mL to 10 μg/mL)	–	< 8.00	< 8.00	< 8.00	X (MIC of less than 1 μg/mL)	Y (MIC of 1 μg/mL to 10 μg/mL)	X (MIC of less than 1 μg/mL)	TIG MPC4 TEM-10 ec302 (ec302 (TEM-10) [1]; BLI with tigemonam at 4 μg/mL): Y (MIC of 1 μg/mL to 10 μg/mL); % Monomer in 100 mg/mL salt solution [2]: 96.4%; TIG MPC4 SHV-12 KP1010 (KP1010 (SHV-12); BLI with tigemonam at 4 μg/mL): X (MIC of less than 1 μg/mL); TIG MPC4 SHV-5 ec308 (ec308 (SHV-5); BLI with tigemonam at 4 μg/mL): X (MIC of less than 1 μg/mL)
